From patent US20170269060A1, “Assays and Compounds to Treat Kidney Diseases” (Rush University Medical Center, priority 2014, published 2017)

Columns and labels:
β1 integrin = molecular target: T1, β1 integrin (Mus musculus, UniProt P09055); assay: β1 integrin and active β1 integrin levels (antibody 9EG7) in PAN-treated murine podocytes; format: cell-based
T1 construct: we quantified the level of β1 in treated cells; endogenous in cells; host or cells: conditionally immortalized murine podocytes (from mouse line H-2Kb-tsA58)
Excerpt: FIG. 9A-9E. An An β1-integrin agonist pyrintegrin (pyr) protects podocytes from damage. (A) The published chemical structure of pyr. (Xu et al. PNAS, 2010.) (B-D) Pyr protects podocytes from PAN-induced loss of F-actin fibers and focal adhesions and enhances active β1-integrin levels. (B) Graphs showing the effect of pyr on the number of F-actin fibers per cell and the number of vinculin spots per cell under each treatment condition. Data shown are means 6 SEMs per cell from three replicate wells (n=500-1000 cells per well). **P, 0.01; ***P, 0.001; ****P, 0.001. (C) Representative fluorescence images of murine podocytes after various treatments and after staining with phalloidin and antiactive β1 antibody. Two-color costained images show cells stained with phalloidin (red) and anti-active β1 antibody 9EG7 (green). Images were acquired using the Opera HCS System. […] Data shown are means±SEMs per cell from four to five replicate wells (n=500-1000 cells per well). Scale bar, 50 μm. *P, 0.01; **P, 0.001. (D) Representative fluorescence images of human podocytes after various treatments as shown. Images show cells stained with phalloidin (red) and anti-active β1-integrin antibody 12G10 (green). Images were acquired using the Opera HCS System. […] Data shown are medians±SEMs per cell from four to five replicate wells (n=500-1000 cells per well). Scale bar, 50 μm. **P, 0.01; ***P, 0.001. (E) Pyr reduces injury-mediated increase in podocyte migration in a scratch wound-healing assay. Representative images (left panel) and a bar graph (right panel) showing confocal microscopy-based quantitation of the number of migrating podocytes in a scratch wound-healing assay Lines represent the wound margins at the beginning of the experiment (0 hours). The data presented in the graph are plotted as means±SEMs (n≧15). C, control. Scale bar, 50 μm. **P<0.01; ****P<0.001.
FIG. 16. […] The cellular damage was assessed after staining the cells with phalloidin, anti-paxillin and anti-integrin β1 antibodies and quantifying various cellular phenotypes using the HCS system. […]

SD rats = assay: PAN-induced nephropathy in rats; format: in vivo, rat; conditions: PAN 150 mg/kg i.v., pyrintegrin 10 mg/kg daily for 14 days
Experimental: The induction of nephropathy in male wild type SD rats (n=6 per group) by PAN injection was performed as described. (Reiser et al., J Clin Invest, 2004; Wei et al., Nature Medicine, 2008; Nakamura et al., Lab Invest, 1991.) Briefly, 5 week old male rats were intravenously injected with PAN (150 mg/kg, in water) and treatment with vehicle or pyrintegrin was started on the same day. Animals in the vehicle group were administered saline-based vehicle solution (3.3% DMSO and 5% Cremaphor EL) intraperitoneally daily for 14 days. Animals in the treatment group were treated with pyrintegrin (10 mg/kg, 3.3% DMSO and 5% Cremaphor EL) in the saline based solution daily for 14 days. Spot urine was collected from animals for measurement of albuminuria as mg albumin per mg creatinine. (Faul et al., Nat Med, 2008) Results are expressed as mean±SEM.
Low-dose LPS decreases β1 integrin activation in podocytes and causes podocyte damage and proteinuria in mice. (Yu et al., N Engl J Med, 2013) Here, we used this model to test whether pyrintegrin, by preserving active β1 integrin in podocytes, is able to suppress podocyte FP effacement and the development of proteinuria in live animals. […] Given that pyrintegrin protected podocytes from PAN-induced damage in vitro, we also tested the efficacy of pyrintegrin in a PAN injury model.

mouse podocytes = assay: Scratch, wound-healing assay (podocyte migration); format: cell-based; conditions: PAN or LPS treatment, cotreatment, 48 hours
Experimental: The effect of identified novel compounds on podocyte migration was assessed using a classic scratch, wound-healing assay as described. (Mathieson, Nat Rev Nephrol, 2012.) Differentiated mouse podocytes per well were seeded overnight in type-I collagen coated wells of a 24 well plate. Each well was subsequently scratched using a sterile 200 μI pipette tip, washed and placed into fresh culture medium. Cells in wells were also treated with PAN, LPS, pyr or a combination, as described in the text. After 48 h, cells were fixed with 2% paraformaldehyde and stained with DAPI. Images of cells near scratched surfaces and their DAPI-stained nuclei were acquired using a 10× objective using a Zeiss Axio Observer D1 microscope (Carl Zeiss Group, Hartford, Conn.) and analyzed using ImageJ software (NIH). Images using transmitted light were also acquired at the beginning and the end of the experiment and were used to align images of pre- and post-treated cells for counting cells that had migrated into similar sized fields. The data shown represent the mean±SEM of three independent experiments.
Next, we assessed the efficacy of this small molecule in a functional assay. In vitro, PAN- or LPS-mediated injury promotes directional migration and wound closure by podocytes in a scratch wound-healing assay.

T1 sequence (P09055 21-798): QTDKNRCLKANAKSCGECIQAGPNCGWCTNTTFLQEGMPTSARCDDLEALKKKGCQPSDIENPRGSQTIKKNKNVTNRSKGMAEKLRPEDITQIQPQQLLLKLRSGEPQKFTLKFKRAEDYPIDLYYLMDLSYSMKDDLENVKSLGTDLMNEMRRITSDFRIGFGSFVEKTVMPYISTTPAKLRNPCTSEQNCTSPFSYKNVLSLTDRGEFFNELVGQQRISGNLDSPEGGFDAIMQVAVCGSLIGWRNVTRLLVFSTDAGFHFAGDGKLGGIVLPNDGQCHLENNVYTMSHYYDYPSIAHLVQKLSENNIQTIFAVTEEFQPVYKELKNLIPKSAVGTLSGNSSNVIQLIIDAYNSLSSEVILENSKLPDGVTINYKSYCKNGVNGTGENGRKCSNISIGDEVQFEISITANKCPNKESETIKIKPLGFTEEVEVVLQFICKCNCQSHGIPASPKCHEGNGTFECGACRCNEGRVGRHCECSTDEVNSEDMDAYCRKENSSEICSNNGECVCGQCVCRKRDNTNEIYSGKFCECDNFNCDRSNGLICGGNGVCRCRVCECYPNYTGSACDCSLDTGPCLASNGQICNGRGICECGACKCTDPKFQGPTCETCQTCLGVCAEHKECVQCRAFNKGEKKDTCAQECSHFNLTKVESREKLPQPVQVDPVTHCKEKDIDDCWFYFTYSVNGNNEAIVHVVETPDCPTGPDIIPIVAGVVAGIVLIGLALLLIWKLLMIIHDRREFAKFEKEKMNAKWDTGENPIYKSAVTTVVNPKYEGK
T1 sequence (Q62470 33-1053 partner): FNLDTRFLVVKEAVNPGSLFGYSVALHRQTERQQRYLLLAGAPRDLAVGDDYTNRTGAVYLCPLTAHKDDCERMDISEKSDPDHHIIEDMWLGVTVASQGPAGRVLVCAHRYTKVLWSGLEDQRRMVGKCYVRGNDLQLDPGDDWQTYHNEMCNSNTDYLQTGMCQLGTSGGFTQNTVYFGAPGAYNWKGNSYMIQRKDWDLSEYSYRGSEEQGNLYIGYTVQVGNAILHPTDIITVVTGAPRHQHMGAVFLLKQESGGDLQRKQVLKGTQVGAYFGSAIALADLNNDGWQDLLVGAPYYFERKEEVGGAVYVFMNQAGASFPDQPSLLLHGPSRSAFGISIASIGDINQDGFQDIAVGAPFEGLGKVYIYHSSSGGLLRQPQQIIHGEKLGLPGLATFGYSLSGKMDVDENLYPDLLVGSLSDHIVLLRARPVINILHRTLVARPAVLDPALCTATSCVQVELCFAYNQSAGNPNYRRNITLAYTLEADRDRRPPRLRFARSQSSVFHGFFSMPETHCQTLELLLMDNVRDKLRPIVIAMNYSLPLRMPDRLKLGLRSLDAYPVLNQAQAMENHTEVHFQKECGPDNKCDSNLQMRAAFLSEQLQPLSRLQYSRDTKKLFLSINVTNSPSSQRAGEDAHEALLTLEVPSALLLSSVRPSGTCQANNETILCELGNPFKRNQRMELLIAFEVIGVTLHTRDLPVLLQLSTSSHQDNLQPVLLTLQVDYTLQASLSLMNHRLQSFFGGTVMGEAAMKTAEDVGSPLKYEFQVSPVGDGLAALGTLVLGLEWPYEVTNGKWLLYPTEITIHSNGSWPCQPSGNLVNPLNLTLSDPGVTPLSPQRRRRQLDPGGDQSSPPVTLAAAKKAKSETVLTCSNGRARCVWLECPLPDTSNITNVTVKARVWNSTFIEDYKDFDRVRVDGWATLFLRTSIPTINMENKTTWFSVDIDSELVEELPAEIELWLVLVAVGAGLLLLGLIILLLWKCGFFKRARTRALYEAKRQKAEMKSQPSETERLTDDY

O=S(=O)(NCC1CC1)c1ccc(Nc2nccc(N3CCCc4cc(O)ccc43)n2)cc1 [Pyrintegrin]
β1 levels in podocytes (β1 integrin; PAN 30 μg/mL, pyr 1 μM cotreatment, 48 h (FIG. 16)): preserved | active β1 levels in podocytes (antibody 9EG7) (β1 integrin; PAN cotreatment): significant loss of active β1 levels in podocytes but not on treatment with pyrintegrin | active β1 levels in healthy cells (β1 integrin; healthy cells, no PAN): significant increase in active β1 levels | albuminuria caused by PAN-induced nephropathy (SD rats): significantly reduced albuminuria | podocyte motility and wound closure (mouse podocytes): significantly reduced podocyte motility and wound closure
